Earlier results on one compound are cited in patent US20230025452A1, “ANTICANCER COMBINATION THERAPY” (Boehringer Ingelheim International GmbH, priority 2017, published 2023).

For series [1], the system named is human acute myeloid leukemia (AML) and human prostate tumor xenograft models harboring p53 wild-type. The following applies: Tovar et al. 2013.
The subject of series [2] is solid tumor xenograft models and acute lymphoblastic leukemia (ALL) xenograft models. As to conditions: Carol et al. 2013.

`CCOc1cc(C(C)(C)C)ccc1C1=N[C@@](C)(c2ccc(Cl)cc2)[C@@](C)(c2ccc(Cl)cc2)N1C(=O)N1CCN(CCCS(C)(=O)=O)CC1` [RG-7112]: the “antiproliferative and proapoptotic activity” value in series [1] was “antiproliferative and proapoptotic activity”. The efficacy result in series [2] (ALL xenograft models with MLL rearrangement) was “particularly efficacious”. For the same compound, in series [2] (solid tumor xenograft models), the tumor growth inhibition entry is given as “induced tumor growth inhibition”.
